In patent US8268827B2, “Pyridazinone derivatives as PARP inhibitors” (Istituto di Ricerche di Biologia Molecolare P. Angeletti …, priority 2007, dated 2012):
Counter-ions that a name gives are not always drawn.

system: BRCA-1 silenced HeLa cells (HeLa shBRCA1-GFP); assay: Proliferation assay in BRCA-1 silenced HeLa cells; format: cell-based; conditions: Homo sapiens; BRCA1 silenced HeLa cells, 168 hours; read-out: CC50 in the BRCA1 silenced HeLa cells
Experimental: Proliferation Assay in BRCA-1 Silenced HeLa Cells
Compounds of the present invention were also tested in an anti-proliferative assay in matched pair BRCA1 wt and BRCA1-(shRNA) HeLa cells.
The assay is based on the ability of living cells to convert a redox dye (resazurin) into a fluorescent end product (resofurin). The amount of resofurin produced is directly proportional to the cell number.
HeLa shBRCA1-GFP—These are HeLa cells transduced at an MOI of 100 with a Lentivirus containing a shRNA against BRCA-1 and an expression cassette for GFP. BRCA-1 silencing is more than 80% as assessed by Taqman analysis and the cells stably express GFP.
HeLa THM-GFP—These are HeLa cells transduced at an MOI of 100 with a control vector not expressing any shRNA.
• Seed 300 cell/well in 96 wells viewplate black in 90 ul culture Medium*: • Incubate 4 hours at 37° C., 5% CO2 • Add 10 ul/well of 10× compound (5% DMSO in H2O) • Incubate for 168 hours at 37° C., 5% CO2 • Add 10 ul of Celltiter Blue solution (Promega, G8081) pre-diluted 1:1 in PBS1× • Incubate the mixture for 45′ at 37° C., 5% CO2 • Incubate 15′ at RT in the dark • Read plate at fluorimeter ex: 550 nm; em: 590 nm *Culture Medium: DMEM (GIBCO, 41966-029), 10% FCS (GIBCO, 10106-169), 0.1 mg/ml Penicillin-Streptomycin (GIBCO, 15140-114), 2 mM L-Glutamine (GIBCO, 3042190)

`Cc1c(Cc2ccc(F)c(C(=O)N3CC(=O)N4CCCC[C@H]4C3)c2)n[nH]c(=O)c1C` [Example 89, (9aS)-2-{5-[(4,5-Dimethyl-6-oxo-1,6-dihydropyridazin-3-yl)methyl]-2-fluorobenzoyl}octahydro-4H-pyrido[1,2-a]pyrazin-4-one trifluoroacetate] and `Cc1c(Cc2ccc(F)c(C(=O)N3CC(=O)N(C4CCCC4)C(C)C3)c2)n[nH]c(=O)c1C` (stereo not shown) [Example 102, 6-{3-[(4-cyclopentyl-3-methyl-5-oxopiperazin-1-yl)carbonyl]-4-fluorobenzyl}-4,5-dimethyl-3-oxo-2,3-dihydropyridazin-1-ium trifluoroacetate] cannot be ordered by CC50: < 5000 nM for the first, < 50 nM for the second.

`Cc1c(Cc2ccc(F)c(C(=O)N3CCN(C4COc5ccccc5C4)C(=O)C3)c2)n[nH]c(=O)c1C` (stereo not shown) [Example 98, 6-(3-{[4-(3,4-dihydro-2H-chromen-3-yl)-3-oxopiperazin-1-yl]carbonyl}-4-fluorobenzyl)-4,5-dimethyl-3-oxo-2,3-dihydropyridazin-1-ium trifluoroacetate] and `Cc1c(Cc2ccc(F)c(C(=O)N3CCN(C4CCc5ccccc54)C(=O)C3)c2)n[nH]c(=O)c1C` (stereo not shown) [Example 100, 6-(3-{[4-(2,3-dihydro-1H-inden-1-yl)-3-oxopiperazin-1-yl]carbonyl}-4-fluorobenzyl)-4,5-dimethyl-3-oxo-2,3-dihydropyridazin-1-ium trifluoroacetate] cannot be ordered by CC50: < 50 nM for the first, < 50 nM for the second.

`Cc1c(Cc2ccc(F)c(C(=O)N3CCN(C4CCCc5ccccc54)C(=O)C3)c2)n[nH]c(=O)c1C` (stereo not shown) [Example 99, 6-(4-fluoro-3-{[3-oxo-4-(1,2,3,4-tetrahydronaphthalen-1-yl)piperazin-1-yl]carbonyl}benzyl)-4,5-dimethyl-3-oxo-2,3-dihydropyridazin-1-ium trifluoroacetate] and `Cc1c(Cc2ccc(F)c(C(=O)N3CCN(C4CCC(c5ccccc5)C4)C(=O)C3)c2)n[nH]c(=O)c1C` (stereo not shown) [Example 119, 6-(4-fluoro-3-{[3-oxo-4-(3-phenylcyclopentyl)piperazin-1-yl]carbonyl}benzyl)-4,5-dimethyl-3-oxo-2,3-dihydropyridazin-1-ium trifluoroacetate] cannot be ordered by CC50: < 50 nM for the first, < 50 nM for the second.

`Cc1c(Cc2ccc(F)c(C(=O)N3CCN([C@@H]4C[C@H]5CC[C@@H]4C5)C(=O)C3)c2)n[nH]c(=O)c1C` [Example 101, 6-[3-({4-[(1R,2R,4S)-Bicyclo[2.2.1]hept-2-yl]-3-oxopiperazin-1-yl}carbonyl)-4-fluorobenzyl]-4,5-dimethyl-3-oxo-2,3-dihydropyridazin-1-ium trifluoroacetate] and `Cc1c(Cc2ccc(F)c(C(=O)N3CCN([C@@H]4CCOC4)C(=O)C3)c2)n[nH]c(=O)c1C` [Example 112, 6-[4-Fluoro-3-({3-oxo-4-[(3R)-tetrahydrofuran-3-yl]piperazin-1-yl}carbonyl)benzyl]-4,5-dimethylpyridazin-3(2H)-one] cannot be ordered by CC50: < 50 nM for the first, < 5000 nM for the second.

First: Cc1c(Cc2ccc(F)c(C(=O)N3CCN([C@H]4CCCOC4)C(=O)C3)c2)n[nH]c(=O)c1C [Example 103, 6-[4-fluoro-3-({3-oxo-4-[(3S)-tetrahydro-2H-pyran-3-yl]piperazin-1-yl}carbonyl)benzyl]-4,5-dimethylpyridazin-3(2H)-one]
Second: Cc1c(Cc2ccc(F)c(C(=O)N3CCN([C@@H]4CCCOC4)C(=O)C3)c2)n[nH]c(=O)c1C [Example 104, 6-[4-fluoro-3-({3-oxo-4-[(3R)-tetrahydro-2H-pyran-3-yl]piperazin-1-yl}carbonyl)benzyl]-4,5-dimethylpyridazin-3(2H)-one]
The CC50 of the first is higher: 50 to 500 nM for the first, < 50 nM for the second.

First: CCN1CCN(C(=O)c2cc(Cc3n[nH]c(=O)c(C(F)(F)F)c3C)ccc2F)CC1=O [Example 105, 3-{3-[(4-Ethyl-3-oxopiperazin-1-yl)carbonyl]-4-fluorobenzyl}-4-methyl-6-oxo-5-(trifluoromethyl)-1,6-dihydropyridazin-1-ium trifluoroacetate]
Second: Cc1c(Cc2ccc(F)c(C(=O)N3CCN(C(c4ccc(F)cc4)C(F)F)C(=O)C3)c2)n[nH]c(=O)c1C (stereo not shown) [Example 118, 6-[3-({4-[2,2-difluoro-1-(4-fluorophenyl)ethyl]-3-oxopiperazin-1-yl}carbonyl)-4-fluorobenzyl]-4,5-dimethyl-3-oxo-2,3-dihydropyridazin-1-ium trifluoroacetate]
The CC50 of the first is lower: < 50 nM for the first, 50 to 500 nM for the second.

`Cc1c(Cc2ccc(F)c(C(=O)N3CCN(C4COC5(CCCC5)C4)C(=O)C3)c2)n[nH]c(=O)c1C` (stereo not shown) [Example 106, 6-(4-Fluoro-3-{[4-(1-oxaspiro[4.4]non-3-yl)-3-oxopiperazin-1-yl]carbonyl}benzyl)-4,5-dimethylpyridazin-3(2H)-one trifluoroacetate] and `Cc1c(Cc2ccc(F)c(C(=O)N3CCN(C4COC5(CCCCC5)C4)C(=O)C3)c2)n[nH]c(=O)c1C` (stereo not shown) [Example 107, 6-(4-Fluoro-3-{[4-(1-oxaspiro[4.5]dec-3-yl)-3-oxopiperazin-1-yl]carbonyl}benzyl)-4,5-dimethylpyridazin-3(2H)-one trifluoroacetate] fall in the same range of CC50: 50 to 500 nM for the first, 50 to 500 nM for the second.

`Cc1c(Cc2ccc(F)c(C(=O)N3CCN(C4(C)CCCCC4)C(=O)C3)c2)n[nH]c(=O)c1C` [Example 110, 6-(4-fluoro-3-{[4-(1-methylcyclohexyl)-3-oxopiperazin-1-yl]carbonyl}benzyl)-4,5-dimethyl-3-oxo-2,3-dihydropyridazin-1-ium trifluoroacetate] and `Cc1c(Cc2ccc(F)c(C(=O)N3CC(=O)N(C4CCC(C)(C)CC4)C(C)C3)c2)n[nH]c(=O)c1C` (stereo not shown) [Example 128, 6-(3-{[4-(4,4-Dimethylcyclohexyl)-3-methyl-5-oxopiperazin-1-yl]carbonyl}-4-fluorobenzyl)-4,5-dimethylpyridazin-3(2H)-one trifluoroacetate] cannot be ordered by CC50: < 5000 nM for the first, < 50 nM for the second.

`Cc1nc(C)c(N2CCN(C(=O)c3cc(Cc4n[nH]c(=O)c(C)c4C)ccc3F)CC2=O)s1` [Example 117, 3-(3-{[4-(2,4-Dimethyl-1,3-thiazol-5-yl)-3-oxopiperazin-1-yl]carbonyl}-4-fluorobenzyl)-4,5-dimethyl-6-oxo-1,6-dihydropyridazin-1-ium trifluoroacetate] and `Cc1c(Cc2ccc(F)c(C(=O)N3CCN([C@H](C)c4ccccc4)C(=O)C3)c2)n[nH]c(=O)c1C` [Example 121, 6-[4-fluoro-3-({3-oxo-4-[(1R)-1-phenylethyl]piperazin-1-yl}carbonyl)benzyl]-4,5-dimethyl-3-oxo-2,3-dihydropyridazin-1-ium trifluoroacetate] fall in the same range of CC50: 50 to 500 nM for the first, 50 to 500 nM for the second.

`Cc1c(Cc2ccc(F)c(C(=O)N3CCN([C@@H](C)c4ccccc4)C(=O)C3)c2)n[nH]c(=O)c1C` [Example 122, 6-[4-fluoro-3-({3-oxo-4-[(1S)-1-phenylethyl]piperazin-1-yl}carbonyl)benzyl]-4,5-dimethyl-3-oxo-2,3-dihydropyridazin-1-ium trifluoroacetate] and `Cc1c(Cc2ccc(F)c(C(=O)N3CCN([C@H](c4ccccc4)C(F)F)C(=O)C3)c2)n[nH]c(=O)c1C` [Example 123, 6-(3-{[4-(2,2-difluoro-1R-phenylethyl)-3-oxopiperazin-1-yl]carbonyl}-4-fluorobenzyl)-4,5-dimethyl-3-oxo-2,3-dihydropyridazin-1-ium trifluoroacetate] fall in the same range of CC50: 50 to 500 nM for the first, 50 to 500 nM for the second.

`Cc1c(Cc2ccc(F)c(C(=O)N3CC(=O)N(C4CCC(F)(F)CC4)C(C)C3)c2)n[nH]c(=O)c1C` (stereo not shown) [Example 126, 6-(3-{[4-(4,4-Difluorocyclohexyl)-3-methyl-5-oxopiperazin-1-yl]carbonyl}-4-fluorobenzyl)-4,5-dimethylpyridazin-3(2H)-one trifluoroacetate] and `Cc1c(Cc2ccc(F)c(C(=O)N3CC(=O)N(C4CCC(F)(F)C4)C(C)C3)c2)n[nH]c(=O)c1C` (stereo not shown) [Example 127, 6-(3-{[4-(3,3-Difluorocyclopentyl)-3-methyl-5-oxopiperazin-1-yl]carbonyl}-4-fluorobenzyl)-4,5-dimethylpyridazin-3(2H)-one trifluoroacetate] cannot be ordered by CC50: < 50 nM for the first, < 50 nM for the second.

`Cc1c(Cc2ccc(F)c(C(=O)N3CC(=O)N(C4CCCOC4)C(C)C3)c2)n[nH]c(=O)c1C` (stereo not shown) [Example 129, 6-(4-Fluoro-3-{[3-methyl-5-oxo-4-(tetrahydro-2h-pyran-3-yl)piperazin-1-yl]carbonyl}benzyl)-4,5-dimethylpyridazin-3(2H)-one trifluoroacetate] and `Cc1c(Cc2ccc(F)c(C(=O)N3CC(=O)N(C4CCOC4)C(C)C3)c2)n[nH]c(=O)c1C` (stereo not shown) [Example 130, 6-(4-Fluoro-3-{[3-methyl-5-oxo-4-(tetrahydrofuran-3-yl)piperazin-1-yl]carbonyl}benzyl)-4,5-dimethylpyridazin-3(2H)-one trifluoroacetate] fall in the same range of CC50: 50 to 500 nM for the first, 50 to 500 nM for the second.

With `Cc1c(Cc2ccc(F)c(C(=O)N3CC(=O)N(C(c4ccccc4)C(F)F)C(C)C3)c2)n[nH]c(=O)c1C` (stereo not shown) [Example 131, 6-(3-{[4-(2,2-Difluoro-1-phenylethyl)-3-methyl-5-oxopiperazin-1-yl]carbonyl}-4-fluorobenzyl)-4,5-dimethylpyridazin-3(2H)-one trifluoroacetate] the CC50 was < 50 nM.
